Columns and labels:
[1] = system: human keratinocytes; assay: Cell protecting effect against UVB on human keratinocytes cultivated in vitro (number of keratinocytes, released LDH); format: cell-based; settings: UVB 50 mJ/cm^2, 0.03%
Method: Method: the effect of UVB radiation was investigated in vitro on keratinocytes by determining the release of the cytoplasm enzyme LDH (lactate dehydrogenase). This enzyme serves as a marker for cell damage.
To carry out the test, a defined medium (DMEM) containing fetal calf serum was inoculated with the keratinocytes and added to the plant extract (diluted with saline solution) 72 hours after inoculation.
The keratinocytes were then exposed to a UVB dose (50 mJ/cm^2-tubes: DUKE FL40E).
After incubation for another day ay 37° C./5% CO2. the LDH content in the supernatant phase was determined. The LDH (lactate dehydrogenase) content was spectrophotometrically determined by determining the NADH content during the LDH-catalyzed conversion of pyruvate to lactate by Bonnekoh's method (Bonnekoh B. et al.; Dermatol. Research; 282; 325-329; 1990).
The number of adhering keratinocytes was determined by a DNA assay based on the fluorescence measurement of fluorochromium that binds to cellular DNA using Desaulniers' method (Desaulniers D. et al.; Toxicol. in vitro; 12; 409-422; 1998) and a particle counter. Another test was carried out for comparison using a standard anti-inflammatory, acetyl salicyclic acid.

[2] = system: human fibroblasts; assay: Cell protecting effect against UVA on human fibroblasts cultivated in vitro (MDA level, protein content); format: cell-based; settings: UVA 365 nm, + vitamin E, concentration not given
Experimental: The lipoperoxides are degraded to malonaldialdehyde which will crosslink many biological molecules, such as proteins and nuclein bases (enzyme inhibition or mutagenesis).
Method: To carry out these tests, a defined culture medium (DMEM) containing the fibroblasts was inoculated with foetal calf serum and added to the plant extract (in the defined medium containing 10% foetal serum) 72 hours after inoculation. Incubation was carried out at 37° C./5% CO2.
After incubation for 48 hours at 37° C./5% CO2, the culture medium was replaced by saline solution (physioloigcal NaCl solution) and the fibroblasts were exposed to a dose of UVA (365 nm, 20 J/cm^2; tubes: MAZDA FLUOR TFWN40).
After the exposure to UVA, the MDA level (malonaldialdehyde level) in the supernatant sodium chloride solution was quantitatively determined by reaction with thiobarbituric acid. The protein content was determined by Bradford's method using a Coomassie Brilliant Blue color (Bradford, Analytical Biochem., 72; 248-254; 1976).

| Protein content [2] | Compound | Content of LDH released ([1]; UVB alone = 100) | Number of keratinocytes ([1]; control without UV = 100) | MDA level ([2]; 20 J/cm^2) |
| --- | --- | --- | --- | --- |
|  | CC(=O)Oc1ccccc1C(=O)O [acetylsalicylic acid] | 3(2) | 76(5) |  |
| 102(11) % versus control | vitamin E |  |  | 31(4) % versus control |
